From patent publication US8309769B2, “Crystalline forms of 2-[2-chloro-4-methylsulfony1-3-(2,2,2-trifluoroethoxymethyl)benzoyl]cyclohexan-1,3-dione” (BASF SE, priority 2007, dated 2012)

Format: physicochemical
Description: The form in question or mixtures of different forms of tembotrione were suspended in a mixture of methanol with water (volume ratio methanol:water 1:9) at temperatures in the range from 10 to 30° C., and the temperature varied cyclically at a rate of 0.33 K min^−1.

Structure (SMILES): CS(=O)(=O)c1ccc(C(=O)C2C(=O)CCCC2=O)c(Cl)c1COCC(F)(F)F [form A, 2-[2-chloro-4-methylsulfonyl-3-(2,2,2-trifluoro-ethoxymethyl)benzoyl]cyclohexan-1,3-dione]
- stability against phase change: modification found after 8 days: unchanged

Structure (SMILES): CS(=O)(=O)c1ccc(C(=O)C2C(=O)CCCC2=O)c(Cl)c1COCC(F)(F)F [form B, 2-[2-chloro-4-methylsulfonyl-3-(2,2,2-trifluoro-ethoxymethyl)benzoyl]cyclohexan-1,3-dione]
- stability against phase change: modification found after 3 days: converted completely into modification C

Structure (SMILES): CS(=O)(=O)c1ccc(C(=O)C2C(=O)CCCC2=O)c(Cl)c1COCC(F)(F)F [mixture of forms A, B and C, 2-[2-chloro-4-methylsulfonyl-3-(2,2,2-trifluoro-ethoxymethyl)benzoyl]cyclohexan-1,3-dione]
- stability against phase change: modification found after 2 days: converted into form A
